Source: ChEMBL document CHEMBL2429729, “Synthesis, biological evaluation, and molecular modeling of (E)-2-aryl-5-styryl-1,3,4-oxadiazole derivatives as acetylcholine esterase inhibitors” (Med Chem Res, 2013)

Target: Acetylcholinesterase (Electrophorus electricus, UniProt O42275)
Experiment: Inhibition of electric eel AChE using acetylthiocholine as substrate incubated for 20 mins prior to substrate addition measured every 30 secs for 4 mins by Ellman's method

Chain of Acetylcholinesterase (O42275 whole entry): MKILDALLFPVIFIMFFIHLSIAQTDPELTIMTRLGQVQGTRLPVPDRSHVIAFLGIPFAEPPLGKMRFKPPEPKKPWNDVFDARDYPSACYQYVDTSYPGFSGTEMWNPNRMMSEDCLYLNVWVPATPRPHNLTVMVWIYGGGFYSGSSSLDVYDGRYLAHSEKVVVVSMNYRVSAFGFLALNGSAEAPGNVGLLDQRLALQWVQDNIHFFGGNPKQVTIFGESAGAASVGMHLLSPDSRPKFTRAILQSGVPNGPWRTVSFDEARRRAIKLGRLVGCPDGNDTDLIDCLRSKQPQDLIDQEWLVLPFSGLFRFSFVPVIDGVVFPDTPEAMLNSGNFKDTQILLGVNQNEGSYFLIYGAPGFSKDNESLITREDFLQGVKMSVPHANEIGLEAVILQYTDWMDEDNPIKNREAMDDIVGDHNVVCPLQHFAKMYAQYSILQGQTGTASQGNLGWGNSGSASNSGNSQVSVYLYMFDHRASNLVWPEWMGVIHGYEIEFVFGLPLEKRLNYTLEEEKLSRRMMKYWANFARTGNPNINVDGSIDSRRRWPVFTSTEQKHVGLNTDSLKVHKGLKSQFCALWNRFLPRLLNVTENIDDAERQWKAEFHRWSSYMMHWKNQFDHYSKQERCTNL

## COc1cc(/C=C/c2nnc(-c3cncc(Br)c3)o2)cc(OC)c1OC
  IC50: 62.8 µM

## COc1cc(/C=C/c2nnc(-c3ccc(Cl)cc3Cl)o2)cc(OC)c1OC
  IC50: 62.2 µM

## COc1cc(/C=C/c2nnc(-c3ccco3)o2)cc(OC)c1OC
  IC50: 13.7 µM

## COc1cc(/C=C/c2nnc(-c3cc(OC)c(OC)c(OC)c3)o2)cc(OC)c1OC
  IC50: 61.5 µM

## Fc1ccc(-c2nnc(/C=C/c3ccc4c(c3)OCO4)o2)cc1Cl
  IC50: 49.6 µM

## Cc1ccc(-c2nnc(/C=C/c3ccc4c(c3)OCO4)o2)cc1
  IC50: 45.3 µM

## COc1cc(/C=C/c2nnc(-c3ccccc3Cl)o2)cc(OC)c1OC
  IC50: 58.1 µM

## COc1cc(/C=C/c2nnc(-c3ccccc3Br)o2)cc(OC)c1OC
  IC50: 64.9 µM

## COc1cc(/C=C/c2nnc(-c3cc4ccccc4o3)o2)cc(OC)c1OC
  IC50: 60.4 µM

## COc1ccc(-c2nnc(/C=C/c3ccc4c(c3)OCO4)o2)cc1
  IC50: 42.8 µM

## COc1cc(/C=C/c2nnc(-c3ccc(F)cc3Cl)o2)cc(OC)c1OC
  IC50: 60.2 µM

## O=[N+]([O-])c1cccc(-c2nnc(/C=C/c3ccc4c(c3)OCO4)o2)c1
  IC50: 49.4 µM

## COc1cc(/C=C/c2nnc(-c3ccc([N+](=O)[O-])cc3)o2)cc(OC)c1OC
  IC50: 49 µM

## COc1ccc(-c2nnc(/C=C/c3ccc4c(c3)OCO4)o2)cc1OC
  IC50: 40.5 µM

## COc1cc(/C=C/c2nnc(-c3cccnc3)o2)cc(OC)c1OC
  IC50: 65 µM

## COc1cc(/C=C/c2nnc(-c3cccnc3Cl)o2)cc(OC)c1OC
  IC50: 61.2 µM

## C(=C\c1nnc(-c2cccnc2)o1)/c1ccc2c(c1)OCO2
  IC50: 48.5 µM

## Clc1ccccc1-c1nnc(/C=C/c2ccc3c(c2)OCO3)o1
  IC50: 47.4 µM

## COc1cc(-c2nnc(/C=C/c3ccc4c(c3)OCO4)o2)cc(OC)c1OC
  IC50: 48.6 µM

## COc1cc(/C=C/c2nnc(-c3cccc([N+](=O)[O-])c3)o2)cc(OC)c1OC
  IC50: 65.8 µM

## Fc1ccc(-c2nnc(/C=C/c3ccc4c(c3)OCO4)o2)c(Cl)c1
  IC50: 19.6 µM

## O=[N+]([O-])c1ccc(-c2nnc(/C=C/c3ccc4c(c3)OCO4)o2)cc1
  IC50: 37.6 µM

## COc1ccc(-c2nnc(/C=C/c3cc(OC)c(OC)c(OC)c3)o2)cc1
  IC50: 61.2 µM

## Clc1ncccc1-c1nnc(/C=C/c2ccc3c(c2)OCO3)o1
  IC50: 54.3 µM

## COc1cc(/C=C/c2nnc(-c3ccccc3)o2)cc(OC)c1OC
  IC50: 24.9 µM

## C(=C\c1nnc(-c2ccccc2)o1)/c1ccc2c(c1)OCO2
  IC50: 50.1 µM

## Brc1cncc(-c2nnc(/C=C/c3ccc4c(c3)OCO4)o2)c1
  IC50: 52.5 µM

## Clc1ccc(-c2nnc(/C=C/c3ccc4c(c3)OCO4)o2)c(Cl)c1
  IC50: 50.3 µM

## COc1cc(/C=C/c2nnc(-c3ccc(C)cc3)o2)cc(OC)c1OC
  IC50: 60.2 µM

## Brc1ccccc1-c1nnc(/C=C/c2ccc3c(c2)OCO3)o1
  IC50: 40.2 µM
